In doi:10.1101/2024.07.10.602890, “H105A peptide eye drops promote photoreceptor survival in murine and human models of retinal degeneration” (bioRxiv, 2024):
Values belong to the substance of their own block, whether it stands above or below them. Ends that are not written are not given here.

What was measured:
[1] = system: rd10 and rd10/Serpinf1−/− mice; test: In vivo photoreceptor cell death (PS externalization) by PSVue-550 fluorescence fundoscopy; set-up: species or system mouse
Method: Fig. 2: Effect of PEDF peptide eye drops on protection against photoreceptor cell death in rd10 and rd10/Serpinf1^−/− mice (A) Illustration of the experimental timeline of peptide application. Eye drops containing 5 μl of 17-mer, H105A, or R99A peptides in HBSS were administered daily to eyes of rd10 and rd10/Serpinf1^−/− mice from P15 to P20. Vehicle (HBSS) was applied in contralateral eyes. At P20, PSVue® was applied via eye drops, and fluorescence fundoscopy was conducted at P21 to assess photoreceptor cell death. RE and LE refer to the right and left eyes, respectively. (B) Fluorescence fundoscopy micrographs. Representative fluorescence fundoscopy images of retinas from mice treated as in Panel A with eyedrops of 1 mg/ml of each peptide. Quantification of fluorescence intensity was performed using ImageJ, with average intensity values corrected for background fluorescence from eyes that had not received PSVue or peptides. […] Statistical significance was determined by unpaired t-test (****p < 0.0001). […] Representative fluorescence fundoscopy micrographs showing retinas treated with varying concentrations of 17-mer and H105A peptides (0.0 mg/ml to 1.0 mg/ml) in rd10 and rd10/SerpinfT^−/− mice. Fluorescence intensity was quantified and analyzed using Sigmoidal interpolation in GraphPad. […]

[2] = system: rd10 and rd10/Serpinf1−/− mice; test: Electroretinography (ERG) a-wave and b-wave after peptide eye drops; format: in vivo, mouse; conditions: rd10 mice; daily eye drops of AlexaFl488-labelled peptide P15-P20, ERG at P21; n = 3 per condition
Source text: Fig. 5: Effect of daily eyedrops of PEDF peptides on ERG a-wave and b-wave retinal function (A and B) Representative ERG waveforms for rd10 (A) and rd10/Serpinf1^−/− (B) mice at P21 in response to a light flash (1 cd.s/m^2). Amplitude (y-axis) is plotted against time in milliseconds (ms, x-axis). Treatments are indicated to the right of each plot and are color coded, with control wild type C57Bl/6J mice without peptide treatment shown in blue. A-wave and b-wave are indicated by arrows. (C and D) Photoreceptor a-wave amplitudes. Averages of photoreceptor a-wave amplitudes for rd10 (C) and rd10/Serpinf1^−/− (D) mice as a function of light intensity (cd/s.m^2, x-axis). Responses of animals treated with 17-mer are shown in green, H105A in black, and vehicle (HBSS) in red. Wildtype responses are shown in blue. (E and F) Bipolar cell b-wave amplitudes. Averages of bipolar cell b-wave amplitudes for rd10 (E) and rd10/Serpinf1^−/− (F) mice as a function of light intensity (cd/s.m^2, x-axis), with treatments indicated as in panels (C) and (D). The number of mice evaluated for the data shown in Panels C-F were n = 8 for each rd10, rd10/Serpinf1^−/− and wild type. Each data point represents the average ± SD of each genotype, analyzed by unpaired t-test. Statistical significance between H105A and vehicle is indicated by ##p < 0.01, ###p < 0.001, ####p < 0.0001, and between H105A and 17-mer by **p < 0.01, ***p < 0.001, ****p < 0.0001.
Electroretinogram (ERG) for rd10 and rd10/Serpinf1^−/− mice were recorded in both eyes of each animal using an Espion E2 system with ColorDome (Diagnosys LLC) with a heated surface and mice were dark-adapted overnight as previously described ([29]). Mice were placed on the heated surface and electrodes were placed in the mouth and a subdermal platinum needle electrode was placed in the back of the mouse to serve as ground. Responses were elicited with increasing light impulses with intensity from 0.0001 to 10 cd-seconds per meter squared (cd.s/m^2). Amplitudes for a-wave were measured from stimulus to the trough of the a-wave and b-wave amplitudes were measured from a-wave to b-wave trough or peak. The values from the a and b waves for both eyes were exported to Microsoft Excel to obtained amplitude values for each mouse.
(§1) Figure S2. Effects of extending the timeline or administering eye drops of 17-mer[H105A] peptide every other day in rd10 mic e.
Eye drops of H105A peptide solution were administered to r d1 0 mice either daily (Fig. S2A) or every other day (Fi g. S 2D). A total of 5 µl of a solution containing H105A peptide at 1 mg/ml in HBSS were applied as eye drops. The vehicle HBSS was added as eye drops in the contralateral eyes. When eye […]
intensity light at P25 (Fig. S2C). When eye drops of H105A were added every other day, a rescue in the ONL thickness in r d10 mice compared to vehicle was also observed (Fi g. S 2E), with an improvement in a- […]
efficacy of peptide H105A eye drops either daily or every other day in an extended timeline to stabilize photoreceptor morphology and light response function loss in r d10 mice, however, these were less efficacious than daily H105A peptide eye drops. […]
(C) ERG of r d1 0 mice at P25 and treated as in Fi g. […] For ERG data shown, the number of mice evaluated were n =5 for rd10 and each data point corresponds to the average ± SD of each genotype by unpaired t-test. *p < 0.05, **p < 0.01, * ** p < 0 .001 , ****p < 0.0001. […]

[3] = system: rd10 and rd10/Serpinf1−/− mice; test: Retinal histology (H&E), OS length and ONL thickness spider plots after peptide eye drops; format: in vivo, mouse; conditions: daily eye drops 1 mg/ml; rd10 and rd10/Serpinf1−/− mice; P21
Method: Fig. 4: Effect of eyedrops of 17-mer and H105A peptides on photoreceptor morphology of rd10 and rd10/Serpinf1−/− mice (A and B) Histological Evaluation. Representative microphotographs of retina sections from rd10 (A) and rd10/Serpinf1−/− (B) mice treated with 17-mer, H105A, or R99A peptides at 1 mg/ml, or with vehicle (HBSS), compared to wild type C57Bl/6J mice. Sections were stained with hematoxylin and eosin. Spider Plot illustrate the thickness of the outer nuclear layer (ONL) in rd10 (C) and rd10/Serpinf1−/− (D) mice. Five retinas per group were analyzed and each data point represents the average ± SEM per location relative to the optic nerve (ON), analyzed using One-way ANOVA. Statistics for comparisons between H105A and vehicle is indicated by #p < 0.05, #p < 0.05, ##p < 0.01, ###p < 0.001). Statistics for comparisons between H105A and 17-mer is indicated by *p < 0.05. Scale bar = 50 μm.
Both eyes were oriented before enucleation to allow sectioning along the dorsal/ventral axis. Enucleated eyes from rd10 and rd10 × Serpinf1^−/− mice were incised in the cornea and fixed in 2.5% glutaraldehyde for 20 min and then in 10% neutral buffered formalin at 4°C for at least 48 h, followed by paraffin embedding, sectioning, and staining with either H&E or immunofluorescence procedures, as previously described ([28]). For fluorescence microscopy, antibodies, and 0.1 μg/ml DAPI were used to immunostain and nuclei counterstain the sections, respectively. Antibodies used in the study are in Table S3. Images were acquired using a ZEIS 700 confocal microscope. Fluorescence intensity was quantified using ImageJ as previously described ([14], [26]).
To generate spider plots, the ONL thickness was measured from images acquired with light microscopy of the retina sections stained with H&E or images of retina sections stained with DAPI with a dorsal-ventral orientation. The ONL thickness in the entire retina sections was measured at 5 different positions from both sides of the optic nerve (ON) using ImageJ, as described before ([28]). Alternatively, for DAPI stained images, a customed macro implemented in ImageJ was used to select only the ONL.
as §1
Eye drops of H105A peptide solution were administered to r d1 0 mice either daily (Fig. S2A) or every other day (Fi g. S 2D). A total of 5 µl of a solution containing H105A peptide at 1 mg/ml in HBSS were applied as eye drops. The vehicle HBSS was added as eye drops in the contralateral eyes. […]
ONL thickness in r d10 mice compared to vehicle was also observed (Fi g. S 2E), with an improvement in a- […]
efficacy of peptide H105A eye drops either daily or every other day in an extended timeline to stabilize photoreceptor morphology and light response function loss in r d10 mice, however, these were less efficacious than daily H105A peptide eye drops.
(A) Scheme showing a timeline of peptide administration via daily eye drops of H105A peptide to r d10 mice between P15 and P2 4. […]
(B) Representative microphotographs of retinal cross sections of r d1 0 treated as in Fig. S2A and stained with hematoxylin and eosin are shown. […]
(D) Scheme showing a timeline of peptide administration via eye drops of H105A peptide to rd10 mice starting at P15 every other day until P23. Assays were at P25.
(E) Representative microphotographs of retinal cross sections of r d1 0 treated as in Fig. S2D and stained […]
average ± SD per location relative to the ON per genotype by unpaired t-test. *p < 0.05, […]
(F) ERG of r d1 0 mice at P25 and treated as in Fig. S2D were performed in response to a STR. […]

Substance: SLGAEQRTESIIHRALYYDLISSPDIHGT [29-mer]
photoreceptor cell death (PSVue 550 fluorescence fundoscopy) relative to vehicle ([1]; daily eye drops 5 μl of 1 mg/ml in HBSS from P15, P21, n = 3 retinas per genotype): no rescue in photoreceptor cell death

neuroprotective activity of labelled peptides as assessed by ERG [2]: exhibited neuroprotective activity
Substance: AlexaFl-QRTESIIARALYYDLIS-COOH [AlexaFl-488-H105A, H105A peptide conjugated to Alexa Fluor 488 dye]

neuroprotective activity of labelled peptides as assessed by ERG [2]: exhibited neuroprotective activity
Substance: AlexaFl-QRTESIIHRALYYDLIS-COOH [AlexaFl-488-17-mer, 17-mer conjugated to Alexa Fluor 488 dye]

Substance: QATESIIHRALYYDLIS [R99A]
PS externalization (PSVue-550 fundi fluorescence) vs vehicle (HBSS) eye drops ([1]; daily eye drops 5 μl of 1 mg/ml, P15 to P20, fundoscopy at P21, 5 eyes per condition): no significant efficacy
outer nuclear layer (ONL) thickness vs vehicle-treated or untreated eyes [3]: had no effect
photoreceptor outer segment (OS) length vs vehicle-treated or untreated eyes [3]: had no effect
